Measurements from paper PMC8222713, “Variation of Two S3b Residues in KV4.1–4.3 Channels Underlies Their Different Modulations by Spider Toxin κ-LhTx-1” (Frontiers in Pharmacology, 2021).
Where a SMILES comes first, the peptide text is derived from it. Bridges are numbered along the chain shown (N, C = ends).

Experiments:
KV3.1 channel (hKV3.1) = test: Whole-cell patch clamp selectivity, KV3.1; format: cell-based, human; conditions: KV3.1, 10 µM, n = 5
Description: (§1) The cDNA of hKV1.1, hKV1.3, rKV1.4, hKV1.5, rKV2.1, hKV3.1–3.4, mKV4.1, rKV4.2, and rKV4.3 were subcloned in the eukaryotic expression vector pCDNA3.1 or pCMV-blank. Channel mutants were made by a site-directed mutation method. Briefly, a pair of oppositely directed primers with 15 bp overlap at their 5′ ends and the designed mutation site were used to amplify the parental channel plasmid, then the PCR mix was treated with DpnI to remove the template. 10 μL digestion mix was directly used to transform 100 μL DH5α chemical competent cells. The correct mutation made by this procedure was finally confirmed by DNA sequencing. […] 4–6 h after transfection, cells were seeded onto poly-lysine (PLL) coated coverslips, and 24–36 h later, transfected cells were ready for patch-clamp analysis. […]
(§2) Whole-cell patch clamp recording was performed in an electrophysiology platform equipped with MultiClamp 700B amplifier and Axon Digidata 1550 AD/DA convertor (Axon Instruments, Irvine, CA, United States). […] The whole cell conductance (G) at each depolarizing voltage (V) was determined using the equation: G = I/(V−Vrev), where I and Vrev represents the current amplitude and the reversal potential, respectively. In the present study, Vrev for K^+ current is determined to be −85.61 mV using the Nernst equation. […] Gating currents of KV4.1–4.3 channels were measured as previously reported ([Tilley et al., 2019]). […]

[1] = test system: KV4.1/280VMTN chimeric channel; test: Whole-cell patch clamp, KV4.1/280VMTN chimera in CHO-K1 cells; format: cell-based, mouse; conditions: mean ± SEM
Description: (§3) The cDNA of hKV1.1, hKV1.3, rKV1.4, hKV1.5, rKV2.1, hKV3.1–3.4, mKV4.1, rKV4.2, and rKV4.3 were subcloned in the eukaryotic expression vector pCDNA3.1 or pCMV-blank. Channel mutants were made by a site-directed mutation method. Briefly, a pair of oppositely directed primers with 15 bp overlap at their 5′ ends and the designed mutation site were used to amplify the parental channel plasmid, then the PCR mix was treated with DpnI to remove the template. 10 μL digestion mix was directly used to transform 100 μL DH5α chemical competent cells. The correct mutation made by this procedure was finally confirmed by DNA sequencing. CHO-K1 cells (ATCC® CCL-61™) were grown in DMEM-F12 mixed medium (1:1) supplemented with 10% FBS and maintained in standard conditions (saturated humidity, 37°C, 5% CO2). Channel plasmid was co-transfected with pEGFP-N1 (encodes the green fluoresence protein) into CHO-K1 cells using lipofectamine 2000 following the manufacturer’s instructions. 4–6 h after transfection, cells were seeded onto poly-lysine (PLL) coated coverslips, and 24–36 h later, transfected cells were ready for patch-clamp analysis. It should be note that KV4.2 and its mutants were also co-expressed with hKChIP1 to promote their functional expressions.
(§4) Whole-cell patch clamp recording was performed in an electrophysiology platform equipped with MultiClamp 700B amplifier and Axon Digidata 1550 AD/DA convertor (Axon Instruments, Irvine, CA, United States). Data were acquired using the pClamp software (Axon Instruments, Irvine, CA, United States). All experiments were performed at room temperature. The bath solution contains (in mM): 140 NaCl, 5 KCl, 1 MgCl2, 2 CaCl2, 10 glucose, and 10 HEPES (pH = 7.3). The pipette solution contains (in mM): 140 KCl, 2.5 MgCl2, 11 EGTA, and 10 HEPES (pH = 7.3). Series resistance was kept below 10 MΩ and compensated to 80%. The concentration–response curves were fitted by a Hill logistic equation to estimate the potency (IC50) of the toxin. The whole cell conductance (G) at each depolarizing voltage (V) was determined using the equation: G = I/(V−Vrev), where I and Vrev represents the current amplitude and the reversal potential, respectively. In the present study, Vrev for K^+ current is determined to be −85.61 mV using the Nernst equation. G-V curve was obtained by plotting the normalized G as a function of V and fitted by the Boltzmann equation: y = 1/{1 + exp [(Va−V)/K]}, in which Va, V, and K represents half-maximum activation voltage, test voltage and slope factor, respectively. The steady-state fast inactivation of KV4 channels was measured using a classical two-pulses protocol: cell was held at −120 mV, and a train of conditional voltages (−120–40 mV, in 10 mV increment, 1,000 ms) were applied to induce channel inactivation, followed by a +60 mV test pulse (300 ms) to assess the proportion of non-inactivated channels; the sweep interval was set to 10 s. Currents at the test pulse (I) were normalized to the maximum value (Imax) and plotted as a function of the conditional voltage (V), the curve was fitted by the Boltzmann equation: I/Imax = A + (1−A)/{1 + exp [(V−Vh)/K]}, where Vh is the half-maximum inactivation voltage, A represents the minimum channel availability, and K is the slope factor. Gating currents of KV4.1–4.3 channels were measured as previously reported ([Tilley et al., 2019]). Briefly, the ionic pore currents were abolished by replacing K^+ with NMDG^+ in the pipette solution, and 10 µM Cs^+ was present in the bath solution to occupy the selectivity filter of KV channels to prevent decay of the gating currents during recording.
(§5) Data were presented as MEAN ± SEM, n represents the number of separate experimental cells. Data were analyzed using the software Clampfit 10.5 (Axon Instruments, Irvine, CA, United States), Graphpad Prism 5.01 (GraphPad Software, La Jolla, CA, United States) and Excel 2010 (Microsoft Corporation, Redmond, WA, United States). […]

[2] = test system: KV4.3/275FVPK chimeric channel; test: Whole-cell patch clamp, KV4.3/275FVPK chimera in CHO-K1 cells; format: cell-based, rat; conditions: mean ± SEM
Description: as §3, §4, §5

[3] = test system: KV4.2/T282P mutant (T280P in text); test: Whole-cell patch clamp, KV4.2/T282P (text: KV4.2/T280P) (with hKChIP1) in CHO-K1 cells; format: cell-based, rat
Description: as §3
as §4, with “Currents at the test pulse (I) were normalized to the maximum value (Imax) and plotted as a function of the conditional voltage (V), the curve was fitted by the Boltzmann equation: I/Imax = A + (1−A)/{1 + exp [(V−Vh)/K]}, where Vh is the half-maximum inactivation voltage, A represents the minimum channel availability, and K is the slope factor.” left out, “Briefly, the ionic pore currents were abolished by replacing K^+ with NMDG^+ in the pipette solution, and 10 µM Cs^+ was present in the bath solution to occupy the selectivity filter of KV channels to prevent decay of the gating currents during recording.” left out
as §5

[4] = test system: KV4.3 channel gating currents; test: Gating current recording, KV4.3; format: cell-based, rat
Description: as §1, §2

KV4.1/V281M mutant = test: Whole-cell patch clamp, KV4.1/V281M in CHO-K1 cells; format: cell-based, mouse; conditions: +30 mV, n = 5
Description: as §1, §2

KV4.2/277LV/AA mutant = test: Whole-cell patch clamp, KV4.2/277LV/AA (with hKChIP1) in CHO-K1 cells; format: cell-based, rat; conditions: KV4.2/277LV/AA at Va depolarizing voltage, n = 5–7
Description: as §1, §2

KV3.2 channel (hKV3.2) = test: Whole-cell patch clamp selectivity, KV3.2; format: cell-based, human; conditions: KV3.2, 10 µM, n = 5
Description: as §1, §2

KV3.3 channel (hKV3.3) = test: Whole-cell patch clamp selectivity, KV3.3; format: cell-based, human; conditions: KV3.3, 10 µM, n = 5
Description: as §1, §2

[5] = test system: KV4.2 channel gating currents; test: Gating current recording, KV4.2; format: cell-based, rat
Description: as §1, §2

KV1.4 channel (rKV1.4) = test: Whole-cell patch clamp selectivity, KV1.4; format: cell-based, rat; conditions: KV1.4, 10 µM, n = 5
Description: as §1, §2

KV4.3/274LV/AA mutant = test: Whole-cell patch clamp, KV4.3/274LV/AA in CHO-K1 cells; format: cell-based, rat; conditions: KV4.3/274LV/AA at Va depolarizing voltage, n = 5–7
Description: as §1, §2

[6] = 10 μM κ-LhTx-1, two-pulse protocol, n = 5
[7] = Va shift by 10 μM κ-LhTx-1 vs control
[8] = Vh shift by 10 μM κ-LhTx-1 vs control
[9] = inhibition ratio at +100 mV, 10 μM
[10] = 10 μM κ-LhTx-1, KV4.2/T282P, G-V, mean ± SEM, n = 5
[11] = 10 μM κ-LhTx-1, KV4.2/T282P, two-pulse protocol, mean ± SEM, n = 5

What does the source list for `CC[C@H](C)[C@@H]1NC(=O)[C@H](CCC(N)=O)NC(=O)[C@@H]2CSSC[C@@H]3NC(=O)[C@H](CC(C)C)NC(=O)[C@H](CC(N)=O)NC(=O)[C@H](CCSC)NC(=O)[C@H](Cc4c[nH]c5ccccc45)NC(=O)[C@H](CO)NC(=O)[C@H](C)NC(=O)[C@@H](NC(=O)[C@H](CCC(=O)O)NC(=O)[C@H](CCC(N)=O)NC(=O)[C@H](C)NC(=O)[C@H](CC(=O)O)NC(=O)[C@@H](N)CCC(=O)O)CSSC[C@H](NC(=O)[C@H](CSSC[C@@H](C(=O)N[C@@H](CCCCN)C(=O)N[C@@H](Cc4ccc(O)cc4)C(=O)N[C@@H](CCCCN)C(=O)N[C@@H](CC(C)C)C(N)=O)NC(=O)[C@H](Cc4c[nH]c5ccccc45)NC1=O)NC(=O)[C@H](CCCCN)NC(=O)[C@H](CCCCN)NC(=O)[C@H](CCC(=O)O)NC(=O)CNC3=O)C(=O)N[C@@H](CCC(=O)O)C(=O)NCC(=O)N[C@@H](Cc1ccc(O)cc1)C(=O)N[C@@H](C(C)C)C(=O)N2` [κ-LhTx-1] (H-EDAQECASWMNLCGEKKCCEGYVCQIWCKYKL-NH2; disulfide 6-19, 13-24, 18-28 (inferred); N-terminus and C-terminus assumed)?
effect on currents (KV3.1 channel (hKV3.1)): did not remarkably affect the currents; Va (steady-state activation) ([1]; 10 μM κ-LhTx-1, G-V, n = 5): 58.61 ± 1.63 mV; k, slope factor (steady-state activation) ([1]; 10 μM κ-LhTx-1, G-V, n = 5): 19.00 ± 0.81 mV; Vh (steady-state inactivation) [1, 6]: -44.55 ± 2.07 mV; k, slope factor (steady-state inactivation) [1, 6]: 9.86 ± 1.33 mV; ∆Va (steady-state activation) [1, 7]: 61.44 ± 1.98 mV; ∆Vh (steady-state inactivation) [1, 8]: 13.52 ± 2.24 mV; inhi%(min) [1, 9]: −2.82 ± 3.37%; Va (steady-state activation) ([2]; 10 μM κ-LhTx-1, G-V, n = 5): 93.50 ± 2.00 mV; k, slope factor (steady-state activation) ([2]; 10 μM κ-LhTx-1, G-V, n = 5): 17.66 ± 1.15 mV; Vh (steady-state inactivation) [2, 6]: -9.28 ± 5.57 mV; k, slope factor (steady-state inactivation) [2, 6]: 16.78 ± 3.11 mV; ∆Va (steady-state activation) [2, 7]: 94.81 ± 2.45 mV; ∆Vh (steady-state inactivation) [2, 8]: 43.34 ± 5.46 mV; inhi%(min) [2, 9]: 65.91 ± 3.36%; Va (steady-state activation) [3, 10]: 16.93 ± 2.90 mV; k, slope factor (steady-state activation) [3, 10]: 25.61 ± 0.68 mV; Vh (steady-state inactivation) [3, 11]: -71.72 ± 3.71 mV; k, slope factor (steady-state inactivation) [3, 11]: 5.86 ± 0.21 mV; toxin inhibition ([3]; KV4.2/T280P, 10 μM, all voltages, n = 5–6): resistant to toxin inhibition at all voltages; inhibition of gating charge (Q) movement, 500 nM vs 10 µM ([4]; KV4.3, holding −100 mV, 20 ms to +30 mV, n = 5–6): inhibited essentially the same proportion of gating charge movement; gating current inhibition ([4]; KV4.3, n = 5–6): inhibited the gating currents; potency vs wild-type KV4.1 (KV4.1/V281M mutant): only slightly reduced κ-LhTx-1 potency; effect of mutation on toxin inhibition (KV4.2/277LV/AA mutant): profoundly weakened the effect; effect on currents (KV3.2 channel (hKV3.2)): did not remarkably affect the currents; effect on currents (KV3.3 channel (hKV3.3)): did not remarkably affect the currents; inhibition of gating charge (Q) movement, 500 nM vs 10 µM ([5]; KV4.2, holding −100 mV, 20 ms to +30 mV, n = 5–6): inhibited essentially the same proportion of gating charge movement; gating current inhibition ([5]; KV4.2, n = 5–6): inhibited the gating currents; effect on currents (KV1.4 channel (rKV1.4)): did not remarkably affect the currents; effect of mutation on toxin inhibition (KV4.3/274LV/AA mutant): profoundly weakened the effect
